Source: patent US12383753B2, “Method and system of sensitizing cancer cells to chemical treatment by plasma based activation” (The George Washington University, priority 2018, dated 2025)
Entries after “also recorded” stand apart in the source; their conditions may differ.

Key:
[1] = system: human pancreas adenocarcinoma (PA-TU-8988T) cells; test: MTT cell viability assay of cancer cells with or without CAP activation, followed by reactive species treatment; assay type: cell-based; details: for cell viability: 10 μM H2O2 on CAP-activated cells, 12.5 kHz, 1.53 lpm
Experimental: In this example, human pancreas adenocarcinoma (PA-TU-8988T) cells were used in conjunction with a Dulbecco's modified Eagle's medium (DMEM, 11965-118) from Life Technologies. The DMEM was mixed with 1% (v/v) antibiotic (penicillin and streptomycin) solution (Life Technologies). The media used in the cell culture were composed of DMEM supplemented with 10% (v/v) fetal bovine serum (ThermoFisher Scientific). The cells were cultured in a 96-well plate (61406-081, Corning). 100 μL of the cells-harvesting solution (3×10^4 cells/mL) were seeded in each well. Cancer cells were grown for 1 day under the standard culture condition (a humidified, 37 C, 5% CO2 environment). The media used to culture cells overnight were removed before any experiments were performed.
In the example system 200 in FIG. 2A, basic protocols were provided to determine the activation state of cancer cells. To perform the CAP sensitivity treatment, each well of the well plate 230 was filled with a 50 μL DMEM solution with the growing cells. Each of the cells in the 96-well plate 230 was treated by the CAP jet from the CAP jet device 202 vertically. The gap between the bottom of the 96-well plate 230 and the CAP source is 3 cm in this example. After the CAP treatment, 50 μL of new DMEM was transferred to replace the medium in the wells of the 96-well plate 230 treated by the CAP jet device 202.
As a result, cancer cells in the activation state were obtained when the CAP sensitivity treatment time was longer than 20 seconds. Reactive treatment was applied in the form of new H2O2 − DMEM added to the cells in the well plate 230. To make the new H2O2 − DMEM, 9.8 M H2O2 standard solution (Sigma-Aldrich, 216763) was added to DMEM with a designed concentration. Then, H2O2 − DMEM or NO2 − DMEM was transferred to affect the activated cancer cells in the designed experiments. The cell viability was measured by using MTT assay according to the standard protocols provided by the manufacturer (Sigma-Aldrich, M2128). The 96-well plate 230 was read by an H1 microplate reader manufactured by […] at an absorbance of 570 nm after shaking in the reader for 30 seconds. To perform the data analysis, the measured absorbance at 570 nm was processed to be a relative cell viability by the division of absorbance between the experimental group and the control group.
The CAP treatment and removal of the medium containing reactive species is the basic strategy to obtain the cancer cells in the activated state. Thus, the process for increasing the effectiveness of treating cancer cells with a follow up reactive treatment is as follows. The direct CAP sensitivity treatment (1 min) was first performed on each well of the 96-well plate 230. The cancer cells in the wells were immersed in 50 μL of DMEM. The DMEM was quickly removed (less than a minute) after the CAP sensitivity treatment. Then, the CAP-activated (treated) cancer cells were obtained. The cytotoxicity of H2O2 (10 μM) treatment on the CAP-treated (activated) cancer cells were compared with that on cancer cells without the CAP sensitivity treatment. The H2O2-containing DMEM was made by adding H2O2 standard solution (Sigma-Aldrich, 216763) in DMEM with a designed concentration (10 μM). All cells were cultured for 3 days before the final cell viability assay using a MTT assay (Sigma-Aldrich, M2128). The cell viability assay was performed following the standard protocols provided by the manufacturer. Finally, the absorbance at 570 nm was processed to be a relative cell viability (fold) by the division of absorbance between the experimental group and the control group. In the control group, cancer cells were just cultured in the untreated DMEM.

[2] = system: human pancreas adenocarcinoma (PA-TU-8988T) cells; test: as above; assay type: cell-based
[3] = cited from earlier work
[4] = low concentration, CAP-activated cancer cells
[5] = low concentration, same cancer cells without activation

Row | SMILES | killing effect (in words) [1, 4] | killing effect (in words) [1, 5] | killing effect (in words) ([1]; 10 μM H2O2, CAP-activated cells) | killing effect (in words) ([1]; 10 μM H2O2, cells without CAP treatment (activation)) | cell viability ([1]; discharge voltage 3.15 kV) [fold] | cell viability ([1]; discharge voltage 3.78 kV) [fold] | cell viability ([1]; discharge voltage 4.67 kV) [fold] | effect on cell viability (in words) ([1]; H2O2 DMEM applied two hours after CAP treatment) | killing effect ([2]; 22 μM H2O2, cells activated by CAP (bars 414 and 444)) [%] | killing effect ([2]; 22 μM H2O2, cells without activation (bars 416 and 446)) | killing of cancer cells (in words) ([2]; 22 μM H2O2-DMEM, cells activated by CAP treatment) | inhibition on the cell viability (in words) ([2]; 22 μM H2O2-DMEM, cells without CAP treatment) | killing effect (in words) ([2]; H2O2 15 μM and 22 μM, CAP-activated cells) | killing effect (in words) ([2]; H2O2-DMEM 15 μM and 22 μM, cells without activation) | concentration range found in CSF [3] [µM]
1 | O=NO [NO2 −] | noticeable killing effect | will not cause significant killing effect |  |  |  |  |  |  |  |  |  |  |  |  | 
2 | OO [H2O2] | noticeable killing effect | will not cause significant killing effect | significant killing effect | will not cause a killing effect; also recorded: does not cause a killing effect | 0.73 | 0.38 | 0.71 | does not have any effect on cell viability | ~50 | about 10% | strongly kill | very small inhibition | strong killing effect | did not cause strong killing effect | 
3 | Cn1nnc2c(C(N)=O)ncn2c1=O [TMZ, Temozolomide] |  |  |  |  |  |  |  |  |  |  |  |  |  |  | 10 to 25
